pIC50: −log10 of the molar value.

The subject of the assay is JR^251 or RBL cells. The assay is described as follows: Fluorescence-based assay of store-operated calcium entry, IC50 in either JR^251 or RBL cells, or both. It counts as cell-based. The protocol: B. Fluorescence-based Assay of Store-Operated Calcium Entry in RBL-2H3Cells.
RBL-2H3 cells are obtained from ATCC and maintained in complete medium with 10% FBS at 37° C./6% CO2.
The day prior to performing the assay, RBL-2H3 cells are plated in 50 μL of complete medium in a 384 well plate. Cells are grown at 37° C./6% CO2 overnight and grow to 50-60% confluence by the next day. On the assay day, 1.5 μM Fluo-4-AM dye (Invitrogen) in complete medium is added and incubated for 1 hour at RT. Cells are washed twice in Ca^2+-free HBSS buffer and 35 μL Ca^2+-free HBSS buffer is added to each well. 10 μL of a test compound prepared in a Ca^2+-free HBSS solution at 4.5× of the desired concentration is added to a well and incubated for 5 minutes at RT. 10 μL of thapsigargin prepared in a Ca^2+-free HBSS solution at 5.5× of the desired concentration (5.5 uM) is added to each well and incubated for an additional 25 minutes. The initial baseline fluorescence signal is measured with a FLIPR^384 (Molecular Devices) plate reader. 5 μL of 12× calcium in HBSS (12 mM) is added and changes in cellular fluorescence are measured with the FLIPR^384 plate reader. In each well, the change in the fluorescent signal as a function of time due to calcium entry into the cell is determined by calculating the difference between the fluorescent signal measured 7 seconds after calcium addition and the initial baseline fluorescence signal at time zero (t=0). This parameter is designated Upslope. The IC50 value is calculated as the concentration at which 50% of the Upslope is inhibited.
C. Fluorescence-based Assay of Store-Operated Calcium Entry in Jurkat Cells.
Jurkat E6-1 cells were obtained from ATCC and maintained in complete medium with 10% FBS at 37° C./6% CO2.
The day prior to performing the assay, Jurkat E6-1 cells are seeded at a density of 2 million cells/mL in complete medium in a T-175 flask. Cells are grown at 37° C./6% CO2 overnight. On the following day, 1.5 μM Fluo-4-AM dye (Invitrogen) in complete medium is added and incubated for 1 hour at RT. Cells are harvested, washed twice in Ca^2+-free HBSS buffer and plated in 35 μL Ca^2+-free HBSS buffer in a 384 well plate. 10 μL of a test compound prepared in a Ca^2+-free HBSS solution at 4.5× of the desired concentration is added to a well and incubated for 5 minutes at RT. 10 μL of thapsigargin prepared in a Ca^2+-free HBSS solution at 5.5× of the desired concentration (5.5 uM) is added to each well and incubated for an additional 25 minutes. The initial baseline fluorescence signal is measured with a FLIPR^384 (Molecular Devices) plate reader. 5 μL of 12× calcium in HBSS (12 mM) is added and changes in cellular fluorescence are measured with the FLIPR^384 plate reader. In each well, the change in the fluorescent signal as a function of time due to calcium entry into the cell is determined by calculating the difference between the fluorescent signal measured 7 seconds after calcium addition and the initial baseline fluorescence signal at time zero (t=0). This parameter is designated Upslope. The IC50 value is calculated as the concentration at which 50% of the Upslope is inhibited.

As usually defined, the pIC50 is the negative decadic logarithm of the IC50, by convention in mol/L. For `Cc1ccccc1CSc1nnnn1-c1cccc(C)c1C` [1-(2,3-dimethylphenyl)-5-(2-methylbenzylthio)-1H-tetrazole], the pIC50 was > 5.00.

`COc1ccc(CSc2nnnn2-c2ccc(C)cc2C)cc1F` [1-(2,4-dimethylphenyl)-5-(3-fluoro-4-methoxybenzylthio)-1H-tetrazole]: the pIC50 was > 5.00.

As to `COc1cccc(CSc2nnnn2-c2ccc(C)cc2C)c1` [1-(2,4-dimethylphenyl)-5-(3-methoxybenzylthio)-1H-tetrazole], the pIC50 is > 5.00.

As to `Cc1ccc(C)c(-n2nnnc2SC(F)(F)c2c(F)c(F)c(F)c(F)c2F)c1` [1-(2,5-dimethylphenyl)-5-(perfluorobenzylthio)-1H-tetrazole], the pIC50 is > 5.00.

Take `CCOc1ccc(C(C)=O)cc1CSc1nnnn1-c1cc(C)ccc1C` [1-(3-((1-(2,5-dimethylphenyl)-1H-tetrazol-5-ylthio)methyl)-4-ethoxyphenyl)ethanone]: the pIC50 was > 5.00.

With `Cc1ccc(C)c(-n2nnnc2SCc2ccccc2Br)c1` [5-(2-bromobenzylthio)-1-(2,5-dimethylphenyl)-1H-tetrazole], the pIC50 was > 5.00.

Source of the values: patent US20110257177A1, “BENZYLTHIOTETRAZOLE INHIBITORS OF STORE OPERATED CALCIUM RELEASE” (CalciMedica, Inc., priority 2008, published 2011).
